Source: PubChem BioAssay (NCI)
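Results reflect a 48-hour exposure of cells in 96-well plates to compound at five concentrations. TGI denotes the concentration required for complete inhibition of growth.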

Legend:
Test in all cases: inhibition of tumour cell growth, NCI panel, 48 h
A498 renal = system: A498 renal
ACHN renal = system: ACHN renal
COLO 205 colon = system: COLO 205 colon
HCT-15 colon = system: HCT-15 colon
HOP-62 NSCLC = system: HOP-62 NSCLC
HT29 colon = system: HT29 colon
LOX IMVI melanoma = system: LOX IMVI melanoma
MDA-MB-231 breast = system: MDA-MB-231 breast
MDA-N = system: MDA-N
NCI-H460 lung = system: NCI-H460 lung
PC-3 prostate = system: PC-3 prostate
SF-268 CNS = system: SF-268 CNS
SF-295 CNS = system: SF-295 CNS
SK-OV-3 ovarian = system: SK-OV-3 ovarian
SNB-75 CNS = system: SNB-75 CNS
SR leukemia = system: SR leukemia
T-47D breast = system: T-47D breast
U251 CNS = system: U251 CNS
UACC-257 melanoma = system: UACC-257 melanoma
UACC-62 melanoma = system: UACC-62 melanoma

SMILES | TGI (A498 renal) [µM] | TGI (ACHN renal) [µM] | TGI (COLO 205 colon) [µM] | TGI (HCT-15 colon) [µM] | TGI (HOP-62 NSCLC) [µM] | TGI (HT29 colon) [µM] | TGI (LOX IMVI melanoma) [µM] | TGI (MDA-MB-231 breast) [µM] | TGI (MDA-N) [µM] | TGI (NCI-H460 lung) [µM] | TGI (PC-3 prostate) [µM] | TGI (SF-268 CNS) [µM] | TGI (SF-295 CNS) [µM] | TGI (SK-OV-3 ovarian) [µM] | TGI (SNB-75 CNS) [µM] | TGI (SR leukemia) [µM] | TGI (T-47D breast) [µM] | TGI (U251 CNS) [µM] | TGI (UACC-257 melanoma) [µM] | TGI (UACC-62 melanoma) [µM]
COc1ccc(C(C)NNC(=O)c2ccncc2)c(OC)c1 (configuration not stated) | > 100 | > 100 | > 100 | > 100 | > 100 | > 100 | > 100 | > 100 | > 100 | > 100 | > 100 | > 100 | > 100 | > 100 | > 100 | > 100 | > 100 | > 100 | > 100 | > 100
COc1cc(/C=C2\CCC(C)C3C2=NN(C(C)=O)C3c2cc(OC)c(OC)c(OC)c2)cc(OC)c1OC (configuration not stated) | > 100 | > 100 | > 100 | > 100 | > 100 | > 100 | > 100 | > 100 | > 100 | > 100 | > 100 | > 100 | > 100 | > 100 | > 54.6 | > 100 | 67.8 | > 100 | > 100 | > 100
CNn1c(-c2ccccc2)n[nH]c1=O | > 100 | > 100 | > 100 | > 100 | > 100 | > 100 | > 100 | > 100 | > 100 | > 100 | > 100 | > 100 | > 100 | > 100 | > 100 | > 100 | > 100 | > 100 | > 100 | > 100
O=C1N=c2ccccc2=C1c1c(O)[nH]c2ccccc12 | 64.3 | 37.1 | > 100 | 19.6 | > 100 | 17.8 | 49.9 | > 100 | > 100 | 59.3 | 26.2 | > 100 | > 100 | > 100 | 35 | 17.8 | 3.77 | 24.1 | > 100 | 39.2
C=C1CC(c2ccc(OCCCN3C(=O)c4ccccc4C3=O)c(OC)c2)OC1=O (configuration not stated) | 6.83 | 18.7 | 5.33 | 18.6 | 30.6 | 13.3 | 4.53 | 30.5 | 16.4 | 14.5 | 25.7 | 23 | 26.3 | 29.4 | 8.06 | 2.72 | 9.96 | 23.5 | 12.8 | 10.2
C[N+](C)([O-])CCC=C1c2ccccc2CCc2ccccc21 | 48.1 | > 100 | 43.6 | 95 | 34.9 | 67.9 | 2.7 | 68 | 65.3 | > 100 | 86.3 | 54.6 | 70 | > 100 | 75.4 | 39.3 | 77.7 | 33.8 | > 100 | 41.2
CCc1nc(N)nc(N)c1-c1ccc2nn(-c3ccccc3)[n+]([O-])c2c1 | 29.2 | 17.3 | 22.3 | 18.8 | 25.3 | 20.2 | 17.7 | 25.5 | 18.8 | 14.8 | 23.4 | 31.5 | 63.5 | > 69.3 | 53.1 | 34.1 | 31.7 | 22.1 | 24.2 | 17.5
CCOC(CCNCC(OCC)OCC)OCC | > 10 | > 10 | > 10 | > 10 | > 10 | > 10 | > 10 | > 10 | > 10 | > 10 | > 10 | > 10 | > 10 | > 10 | > 10 | > 10 | > 10 | > 10 | > 10 | > 10
C=C1C[C@@H]2O[C@H]3[C@H]4[C@@H](C[C@@H](C)[C@@H](OC(C)=O)[C@H]42)[C@@H](C)CO[C@@]3(C)[C@H](OC(C)=O)C[C@H]1O | > 100 | > 100 | > 100 | > 100 |  | > 100 | 38.7 | > 100 | > 100 | > 100 | > 100 | > 100 | > 100 | > 100 | > 100 | > 100 | > 100 | > 100 | > 100 | > 100
CC1=C(C#N)C(C#N)(C#N)C(NN(C)C)C1 (configuration not stated) | 43 | 34.6 | 16.1 | 21.3 | 30.4 | 38.3 | 29.7 | 28.4 | 21.9 |  | 46.6 | 78.7 | 79.1 | > 100 | 40.3 | > 100 | 27.8 | > 100 | 26.4 | 61.6
COc1ccc(C(=O)Sc2c(-c3ccccc3)c(=O)n(-c3ccccc3)c(=S)n2-c2ccccc2)cc1 | 44 | > 100 | > 100 | > 100 | > 100 | > 100 | > 100 | > 100 | > 100 | > 100 | > 100 | > 100 | > 100 | > 100 | > 100 | > 100 | > 100 | > 100 | > 100 | > 100
CCC(C)(C)/C(CC(O)(C(F)(F)F)C(F)(F)F)=N\O | > 100 | > 100 | > 100 | > 100 | > 100 | > 100 | > 100 | > 100 | > 100 | > 100 | > 100 | > 100 | > 100 | > 100 | > 100 | > 100 | > 100 | > 100 |  | > 100
O=C(CCCn1ccnc1[N+](=O)[O-])NCCn1cncc1[N+](=O)[O-] | > 100 | > 100 | > 100 | > 100 | > 100 | > 100 | > 100 | > 100 | > 100 | > 100 | > 100 | > 100 | > 100 | > 100 | > 100 | > 100 | > 100 | > 100 | > 100 | > 100
CN(C)Cc1cc(C(=O)/C=C/c2ccc(Cl)cc2)cc(CN(C)C)c1O | 27.7 | 16.1 | 10.7 | 54.4 | 15.8 | 18.6 | 15.3 | 23.5 | 25.3 | 21.8 | 24.7 | 71.1 | 26 |  | 44.4 | 45.7 | > 100 | 28 | 29.2 | 
Oc1ccc2ccccc2c1/C=C/c1ccc2c(Br)cc(Br)c(O)c2n1 | 18.6 | 18.1 | 21.9 | 17.5 | 34.5 | 41.4 | 23 | 23.4 | 26.7 | 16.2 | 18.9 | 21.8 | 18.5 | 28.9 | 30.8 | > 40.4 | 35.4 | 21.6 | 22.9 | 24.2
Cc1ccc(S(=O)(=O)N/N=C/C(=C/c2ccc(Cl)cc2)CC(/C=N/NS(=O)(=O)c2ccc(C)cc2)=C\c2ccc(Cl)cc2)cc1 | 29 | 19.1 | 16.9 | 12.3 | 70.8 | 24.1 | 3.73 | 24.8 | 26.7 | 30.3 | 24 | 55.2 | 55 | > 100 | 60.1 | 24.5 | 19.2 | 17.2 | 63.6 | 27.4
CCN(CC)c1c(N(CC)CC)c(=O)c1=O | 58.1 | 21.1 | 8.24 | 17 | > 77.3 | 5.96 | 25.8 | 15.8 | 32.1 | > 78.2 | 46.4 | > 77 | > 100 | > 100 | 62.6 | > 100 | 10.4 | 55.6 | 20.5 | 45.7
O=[N+]([O-])c1cc2oc(COc3ccccc3)nc2cc1Cl | 53 | > 100 | 36.6 | 43.3 | 50.6 | > 100 | 35 | 69.4 | 69.6 | 53.6 | > 100 | > 100 | 38.8 | 59.9 | 58 | > 100 | 81.4 | 52.5 | 63.4 | 41.4
CC(=O)OCCn1cnc2nc(Nc3ccccc3)nc(Cl)c21 | > 100 | > 100 | 88.1 | > 100 | > 100 | > 100 | > 100 | > 100 | > 100 | > 100 | > 100 | > 100 | > 100 | > 100 |  | > 100 | > 100 | > 100 | > 100 | > 100
C=C(C)C(CC=C(C)C)CC12CC(CC=C(C)C)C(C)(C)C(CC=C(C)C)(C(=O)C(Cc3ccc(O)c(O)c3)=C1O)C2=O (configuration not stated) | > 100 | > 100 | > 100 | > 100 | > 100 | > 100 | > 100 | > 100 | > 100 | > 100 | > 100 | > 100 | > 100 | > 100 | > 100 | > 100 | > 100 | > 100 | > 100 | > 100
COC(=O)C(C)(NC(=O)C(CC(=O)OC(C)(C)C)NC(=O)OC(C)(C)C)c1ccccc1 (configuration not stated) | > 100 | > 100 | > 100 | > 100 | > 100 | > 100 | > 100 | > 100 | > 100 | > 100 | > 100 | > 100 | > 100 | > 100 | > 100 | > 100 | > 100 | > 100 | > 100 | > 100
CC1(CCCO)CCCCCC(C)(CCCO)C1=O (configuration not stated) | > 100 | > 100 | > 100 | > 100 | > 100 | > 100 | > 100 | > 100 | > 100 | > 100 | > 100 | > 100 | > 100 | > 100 | > 100 | > 100 | > 100 | > 100 | > 100 | > 100
CC(=O)c1c2c(cc3c1CC1(Cc4ccccc4C1=O)C3)CCC2 (configuration not stated) | > 100 | > 100 | 30.7 | > 100 | > 100 | > 100 | 55.7 | 93.4 | > 100 | > 100 | > 100 | > 100 | > 100 | > 100 | > 100 | 47.9 | 49.3 | > 100 | 64.6 | 
CNc1ccc(OC)cc1S(=O)(=O)c1ccccc1[N+](=O)[O-] | > 100 | > 100 | > 100 | > 100 | > 100 | > 100 | > 100 | > 100 | > 100 | > 100 | > 100 | > 100 | > 100 | > 100 | > 100 | > 100 | > 100 | > 100 |  | > 100
